Reference: patent US8507219B2, “Method of treating inflammation with statins” (MUSC Foundation for Research Development, priority 1997, dated 2013)

Experiments:
iNOS promoter [1] = assay: iNOS promoter-derived CAT activity in rat macrophages; assay type: cell-based; conditions: LPS 1.0 μg/ml, 14 h
Experimental: (§1) Construction of reporter plasmid, transfection and assay of chloramphenicol acetyl transferase activity The CAT (chloramphenicol acetyl transferase) under the control of nitric oxide synthase promoter (iNOS) was created by subcloning 1.5 kb promoter from pGEM-NOS at Sph I and Sal I restriction sites of pCAT-basic vector (Promega). […]. The cells were transfected by using the lipofectin (Life Technologies Inc., USA) method, as has been described in manufacturer's protocol, with 2 μg of reporter plasmid. They were then stimulated 24 h after transfection and harvested after 14 h of stimulation. CAT activity was measured as has been described.

[2] = system: TNF-α production in rat resident macrophages; assay: LPS-/IFN-γ-induced TNF-α production (ELISA) in rat macrophages; assay type: cell-based; conditions: Macrophages, LPS 1.0 μg/ml, 24 h
PP 1/2A = assay: PP1/2A activity in homogenates of LPS-treated astrocytes; assay type: cell-based, rat; conditions: LPS 1.0 μg/ml, 30 min; okadaic acid 0-20 nM
Experimental: In vitro PP1/2A assay The extraction and assay for PP1/2A were performed as described (Begum and Ragolia, 1996). Control and treated cells were scraped off the dishes with 0.3 ml of phosphatase extraction buffer containing 20 mM imidazole-HCl, 2 mM EDTA, 2 mM EGTA, pH 7.0, with 10 μg/ml each of aprotinin, leupeptin, antipain, soybean trypsis inhibitor, 1 mM benzamide, and 1 mM PMSF. The cells were sonicated for 10 s and centrifuged at 2000×g for 5 min, and the supernatants were used for the assay of phosphatase activities using the protein phosphatase assay kit (Life Technologies, Inc.) according to the manufacturer's protocol.

[3] = system: TNF-α production in rat primary astrocytes; assay: LPS-induced TNF-α production (ELISA) in rat primary astrocytes; assay type: cell-based; conditions: Astrocytes, LPS 1.0 μg/ml, 24 h
Experimental: Determination of TNF-α and IL-1β in culture supernatants Cells were stimulated with LPS in serum-free media for 24 h in the presence or absence of forskolin or rolipram, and concentrations of TNF-α and IL-1β were measured in culture supernatants by using high-sensitivity enzyme-linked immunosorbent assay (R&D Systems, USA) according to the manufacturer's instructions.

iNOS promoter [4] = assay: iNOS promoter-derived CAT activity in rat primary astrocytes; assay type: cell-based; conditions: LPS 1.0 μg/ml, 14 h
Experimental: as §1

[5] = system: NO production in rat C6 glial cells; assay: LPS-/cytokine-induced NO production (nitrite) in C6 glial cells; assay type: cell-based; conditions: 2 nM calyculin A along with LPS and cytokines, 24 h
iNOS = assay: Expression of iNOS protein (immunoblot) and mRNA (Northern) in rat primary astrocytes; assay type: cell-based; conditions: LPS 1.0 μg/ml
Experimental: (§2) Immunoblot analysis for iNOS Following 24 h incubation in the presence or absence of stimuli by different cytokines or LPS, macrophages were scraped off, washed with Hank's buffer, and homogenized in 50 mM Tris-HCl (pH 7.4) containing protease inhibitors (1 nM PMSF, 5 μg/ml aprotinin, 5 μg/ml pepstatin A, and 5 μg/ml leupeptin). After electrophoresis the proteins were transferred onto a nitrocellulose membrane, and the iNOS band was visualized by immunoblotting with antibodies against mouse macrophage iNOS and [^125I]-labeled protein A (Singh et al., 1988).
RNA isolation, Northern blot analysis, and reverse-transcriptase coupled polymerase chain reaction (RT-PCR) Stimulated peritoneal macrophages were taken out from culture dishes directly by adding Ultraspec-II RNA reagent (Biotecx Laboratories Inc.) and total RNA was isolated according to the manufacturer's protocol. For northern blot analyses, 20 μg of total RNA was electrophoresed on 1.2% denaturing formaldehyde-agarose gels, electrotransferred to Hybond-Nylon Membrane (Amersham) and hybridized at 68° C. with ^32P-labeled cDNA probe using Express Hyb hybridization solution (Clontech) as described by the manufacturer. […]; After hybridization filters were washed two to three times in solution I (2×SSC, 0.05% SDS) for 1 h at room temperature followed by solution II (0.1×SSC, 0.1% SDS) at 50° C. for another hour. The membranes were then dried and exposed to X-ray film (Kodak). The same filters were stripped and rehybridized with probes for GAPDH. The relative mRNA content for iNOS was measured after scanning the bands with a Biorad (Model GS-670) imaging densitometer.
as §2, with “of” for “of stimuli by”, “stimuli, cells” for “cytokines or LPS, macrophages”, “inhibitors.” for “inhibitors (1 nM PMSF, 5 μg/ml aprotinin, 5 μg/ml pepstatin A, and 5 μg/ml leupeptin).”, “A.” for “A (Singh et al., 1988).”
RNA isolation and Northern blot analysis Cells were taken out from culture dishes directly by adding Ultraspec-II RNA reagent (Biotecx Laboratories Inc.) and total RNA was isolated according to the manufacturer's protocol. For Northern blot analyses, 20 μg of total RNA was electrophoresed on 1.2% denaturing formaldehyde-agarose gels, electrotransferred to Hybond-Nylon Membrane (Amersham) and hybridized at 68° C. with ^32P-labeled cDNA probe using Express Hyb hybridization solution (Clontech) as described by the manufacturer. […]; After hybridization filters were washed two or three times in solution I (2×SSC, 0.05% SDS) for one hour at room temperature followed by solution II (0.1×SSC, 0.1% SDS) at 50° C. for another hour. The membranes were then dried and exposed with X-ray films (Kodak). The same filters were stripped and rehybridized with probes for GAPDH. The relative mRNA content for iNOS was measured after scanning the bands with a Biorad (Model GS-670) imaging densitometer.
as §2, with “After a” for “Following”, “of” for “of stimuli by”, “stimuli, cells” for “cytokines or LPS, macrophages”, “mM” for “nM”, “A.” for “A (Singh et al., 1988).”
RNA isolation and Northern blot analysis Cells were taken out from culture dishes directly by adding Ultraspec-II RNA reagent (Biotecx Laboratories Inc., Houston, Tex.), and total RNA was isolated according to the manufacturer's protocol. […]

[6] = system: NO production in rat resident macrophages; assay: LPS-/cytokine-induced NO production (nitrite) in rat resident peritoneal macrophages; assay type: cell-based; conditions: LPS 1.0 μg/ml, 24 h
Experimental: Isolation of Rat Macrophages and Induction of NO Production Resident macrophages were obtained from rats by peritoneal lavage with sterile RPMI 1640 medium containing 1% fetal bovine serum and 100 μg/ml gentamicin (Wang et al., 1995). Cells were washed three times with RPMI 1640 at 4° C. All cell cultures were maintained at 37° C. in a humidified incubator containing 5% CO2 in air. Macrophages, at a concentration of 2×10^6/ml in RPMI 1640 medium containing L-glutamine and gentamicin, were added in volumes of 800 μl to a 35 mm plate. After 1 h, nonadherent cells were removed by washing and 800 μl of serum-free RPMI 1640 medium with various stimuli were added to the adherent cells. After 24 h incubation in 5% CO2 in air at 37° C., the culture supernatants were transferred to measure NO production (Geng et al., 1995; Wang et al., 1995).
Isolation of rat macrophages and induction of NO production Resident macrophages were obtained from rat by peritoneal lavage with sterile RPMI 1640 medium containing 1% fetal bovine serum and 100 μg/ml gentamicin as described herein. Cells were washed three times with RPMI 1640 at 4° C. All cell cultures were maintained at 37° C. in a humidified incubator containing 5% CO2 in air. Macrophages at a concentration of 2×10^6/ml in RPMI 1640 medium containing L-glutamine and gentamicin were added in volumes of 800 μl to a 35 mm plate. After 1 h, nonadherent cells were removed by washing and 800 μl of serum-free RPMI 1640 medium with various stimuli were added to the adherent cells. After incubation in 5% CO2 in air at 37° C., culture supernatants were transferred to measure NO production.
Isolation of rat macrophages and induction of NO production Resident macrophages were obtained from rat by peritoneal lavage with sterile RPMI 1640 medium containing 1% FBS and 100 μg/ml gentamicin. Cells were washed three times with RPMI 1640 at 4° C., and were maintained at 37° C. in a humidified incubator containing 5% CO2 in air. Macrophages at a concentration of […] in RPMI 1640 medium containing L-glutamine and gentamicin were added in volumes of 800 μl to a 35-mm plate. After 1 h, nonadherent cells were removed by washing, and 800 μl of serum-free RPMI 1640 medium with various stimuli was added to the adherent cells. After 24 h the culture supernatants were transferred to measure NO production.
Protein was measured (Bradford, 1976).

[7] = system: murine macrophage cell line RAW 264.7; assay: LPS-/cytokine-induced NO production and iNOS protein in RAW 264.7; assay type: cell-based; conditions: 24 h
Experimental: Cells in this study were incubated in serum-free DMEM/F-12 received calyculin A along with LPS and cytokines. Samples tested included control, LPS+TNF-α, TNF-α+IFN-γ, TNF-α+IL-1β, LPS+TNF-α+calyculin A, TNF-α+IFN-γ+calyculin A, and TNF-α+IL-1β+calyculin A. After 24 h, concentration of nitrite (nmol/mg/24 h) was measured in the supernatants as described in Example 6. Data are mean±S.D. of three different studies. Cell homogenates were electrophoresed, transferred on […] against mouse macrophage iNOS as described.

Structure (SMILES)	LPS-induced iNOS promoter-derived CAT activity (iNOS promoter [1])	TNF-α ([2]; inhibitor 5 nM) [ng/24 h/mg protein]	TNF-α ([2]; inhibitor 10 nM) [ng/24 h/mg protein]	activities of PP 1/2A (PP 1/2A)	TNF-α ([3]; inhibitor 5 nM) [ng/24 h/mg protein]	TNF-α ([3]; inhibitor 10 nM) [ng/24 h/mg protein]	LPS-induced iNOS promoter-derived CAT activity (iNOS promoter [4])	stimulation of the production of NO [5]	LPS-mediated induction of iNOS protein and mRNA (iNOS)	TNF-α ([2]; inhibitor 1 nM) [ng/24 h/mg protein]	TNF-α ([2]; inhibitor 2 nM) [ng/24 h/mg protein]	LPS-induced NO production [6]	LPS- and cytokine-induced production of NO and iNOS protein [7]	TNF-α ([3]; inhibitor 1 nM) [ng/24 h/mg protein]	TNF-α ([3]; inhibitor 2 nM) [ng/24 h/mg protein]
C=C1[C@@H](O)[C@@H]2O[C@]3(CC[C@H](/C=C/[C@@H](C)[C@@H]4CC(C)=C[C@@]5(O[C@H](C[C@@](C)(O)C(=O)O)CC[C@H]5O)O4)O3)CC[C@H]2O[C@@H]1[C@@H](O)C[C@H](C)[C@H]1O[C@@]2(CCCCO2)CC[C@H]1C [Okadaic acid]	inhibited the LPS-induced CAT activity in macrophages	24.3 ± 1.9	28.9 ± 3.4	dose-dependently inhibited the activities of PP 1/2A	10.8 ± 1.2	14.6 ± 1.8	stimulated the LPS-induced CAT activity in astrocytes	–	–	–	–	–	–	–	–
COC[C@@H]([C@H](O)[C@H](O)C(=O)NCC[C@H](C)c1nc(/C=C/C[C@@H]2O[C@]3(C[C@@H](O)[C@@H]2C)O[C@H]([C@H](C[C@H](O)[C@H](C)[C@H](O)[C@H](C)/C=C(C)/C(C)=C/C=C/C(C)=C\C#N)OC)[C@H](OP(=O)(O)O)C3(C)C)co1)N(C)C [Calyculin A]	–	–	–	also inhibited the activities of PP 1/2A	–	–	–	more than three fold	enhanced the LPS-mediated induction of iNOS protein and mRNA	27.5 ± 3.1	31.2 ± 3.6	inhibited the LPS-induced NO production in rat peritoneal macrophages	inhibit the LPS- and cytokine-induced production of NO and the expression of iNOS protein	12.5 ± 1.6	16.9 ± 2.1
